Among the data in patent US20210115044A1, “TRICYCLIC HETEROCYCLE COMPOUNDS USEFUL AS HIV INTEGRASE INHIBITORS” (Merck Sharp & Dohme Corp., priority 2018, published 2021) are IC50 values, retold here.

pIC50: −log10 of the molar value. Where two headings read alike, the source gives them in different places.

The assay relates to HIV-1 (H9/IIIB strain). As to the kind of experiment: Multiple round HIV-1 infection assay in MT4-GFP cells (wild type cell assay, Viking). Format: cell-based. To be noted: MT4-GFP cells infected with HIV-1 H9/IIIB, inhibition of reproductive ratio R0, ~48 h and ~72 h post-infection. As for the experimental part:
The antiviral activity of the Examples herein was assessed in an assay that measures the rate of replication of HIV in cell culture, and performed according to the following procedure. HIV-1 replication was monitored using MT4-gag-GFP clone D3 (hereafter designated MT4-GFP), which are MT-4 cells modified to harbor a GFP reporter gene, the expression of which is dependent on the HIV-1 expressed proteins tat and rev. Productive infection of an MT4-GFP cell with HIV-1 results in GFP expression approximately 24 h post-infection. MT4-GFP cells were maintained at 37° C./5% CO2/90% relative humidity in RPMI 1640 supplemented with 10% fetal bovine serum, 100 U/ml penicillin/streptomycin, and 400 μg/ml G418 to maintain the reporter gene. For infections, MT4-GFP cells were placed in the same medium lacking G418 and infected overnight with HIV-1 (H9/IIIB strain) virus at an approximate multiplicity of infection of 0.01 in the same incubation conditions. Cells were then washed and re-suspended in either RPMI 1640 at 2×10^5 cells/mL (0% NHS condition) or 100% normal human serum (NHS) at 2×10^5 cells/mL (100% NHS condition). Compound plates were prepared by dispensing compounds dissolved in DMSO into wells of 384 well poly-D-lysine-coated plates (0.2 μl/well) using an ECHO acoustic dispenser. Each compound was tested in a 10-point serial 3-fold dilution (typical final concentrations: 1050 nM-0.05 nM for 0% NHS condition or 42 μM-2.13 nM for 100% NHS condition). Controls included no inhibitor (DMSO only) and a combination of three antiviral agents (efavirenz, indinavir, an in-house integrase strand transfer inhibitor at final concentrations of 4 μM each). Cells were added ([…]) to compound plates and the infected cells were maintained at 37° C./5% CO2/90% relative humidity.
Infected cells were quantified at two time points, ˜48 h and ˜72 h post-infection, by counting the number of green cells in each well using an Acumen eX3 scanner. The increase in the number of green cells over ˜24 h period gives the reproductive ratio, R0, which is typically 5-15 and has been shown experimentally to be in logarithmic phase (data not shown). Inhibition of R0 is calculated for each well, and IC50s determined by non-linear 4-parameter curve fitting.

[1] abbreviates: 0% NHS condition (RPMI 1640), read-out: WILD TYPE CELL ASSAY Viking IP (0% NHS).
Setting [2] is: 100% normal human serum condition, read-out: WILD TYPE CELL ASSAY Viking IP (100% NHS).
[3] abbreviates: Human immunodeficiency virus 1, IIIB, 0% NHS condition (RPMI 1640), read-out: WILD TYPE CELL ASSAY Viking IP (0% NHS).

Turning to `CCN1CC2(CCOC(F)F)CC(O)c3c(C(=O)NCc4ccc(F)cc4F)c(=O)c(O)c(n32)C1=O` (single isomer, unassigned) [Compound 1], the pIC50 is 8.12 under setting [1] and 6.63 under setting [2].
In the same order, the values of `CCN1CC2(CCOC(F)F)CC(O)c3c(C(=O)NCc4ccc(F)cc4F)c(=O)c(O)c(n32)C1=O` (single isomer, unassigned) [Compound 2] are 8.20 and 7.02.
Take `CN1CC2(C)CC(O)c3c(C(=O)NCc4ccc(F)cc4)c(=O)c(O)c(n32)C1=O` (single isomer, unassigned) [Compound 21]: the pIC50 is 8.43 under setting [3] and 6.03 under setting [2].
With `CN1CC2(C)CC(O)c3c(C(=O)NCc4ccc(F)cc4)c(=O)c(O)c(n32)C1=O` (single isomer, unassigned) [Compound 22], the pIC50 runs as follows: under setting [1], 8.52; under setting [2], 6.64.
In the case of `CN1CC2(C)CC(O)c3c(C(=O)NCc4c(F)cc(F)cc4F)c(=O)c(O)c(n32)C1=O` (single isomer, unassigned) [Compound 25], the pIC50 by setting is: under setting [3], 8.85; under setting [2], 5.77.
For the compound `CN1CC2(C)CC(O)c3c(C(=O)NCc4c(F)cc(F)cc4F)c(=O)c(O)c(n32)C1=O` (single isomer, unassigned) [Compound 26], the pIC50 is 8.68 under setting [1] and 6.97 under setting [2].
Take `CN1CC2(C)CC(O)c3c(C(=O)NCc4c(F)ccc(Cl)c4F)c(=O)c(O)c(n32)C1=O` (single isomer, unassigned) [Compound 29]: the pIC50 runs as follows: under setting [3], 8.72; under setting [2], 5.50.
Regarding `CN1CC2(C)CC(O)c3c(C(=O)NCc4c(F)ccc(Cl)c4F)c(=O)c(O)c(n32)C1=O` (single isomer, unassigned) [Compound 30], the pIC50 is, setting by setting: under setting [1], 8.68; under setting [2], 6.39.
With `CN1CC2(C)CC(O)c3c(C(=O)NCc4cccc(Cl)c4F)c(=O)c(O)c(n32)C1=O` (single isomer, unassigned) [Compound 33], the pIC50 is, setting by setting: under setting [3], 8.52; under setting [2], 5.92.
As to `CN1CC2(C)CC(O)c3c(C(=O)NCc4cccc(Cl)c4F)c(=O)c(O)c(n32)C1=O` (single isomer, unassigned) [Compound 34], the pIC50 is 8.68 under setting [1] and 6.75 under setting [2].
As to `CCC12CC(O)c3c(C(=O)NCc4ccc(F)cc4F)c(=O)c(O)c(n31)C(=O)N(C)C2` (single isomer, unassigned) [Compound 37], the pIC50 under setting [1] was 8.66 and the pIC50 under setting [2] was 6.26.
For the compound `CCC12CC(O)c3c(C(=O)NCc4ccc(F)cc4F)c(=O)c(O)c(n31)C(=O)N(C)C2` (single isomer, unassigned) [Compound 38], the pIC50 by setting is: under setting [1], 8.92; under setting [2], 7.49.
In the case of `CCC12CC(O)c3c(C(=O)NCc4ccc(F)cc4F)c(=O)c(O)c(n31)C(=O)N(C)C2` (single isomer, unassigned) [Compound 39], the pIC50 is 8.68 under setting [1] and 6.49 under setting [2].
Take `CCC12CC(O)c3c(C(=O)NCc4ccc(F)cc4F)c(=O)c(O)c(n31)C(=O)N(C)C2` (single isomer, unassigned) [Compound 40]: the pIC50 is 8.72 under setting [1] and 7.41 under setting [2].
For the compound `CCC12CC(O)c3c(C(=O)NCc4cccc(Cl)c4F)c(=O)c(O)c(n31)C(=O)N(C)C2` (single isomer, unassigned) [Compound 41], the pIC50 under setting [1] is 8.66 and the pIC50 under setting [2] is 7.52.
The matching figures for `CCC12CC(O)c3c(C(=O)NCc4cccc(Cl)c4F)c(=O)c(O)c(n31)C(=O)N(C)C2` (single isomer, unassigned) [Compound 42]: 8.55 and 7.23.
Regarding `CCC12CC(O)c3c(C(=O)NCc4cccc(Cl)c4F)c(=O)c(O)c(n31)C(=O)N(C)C2` (single isomer, unassigned) [Compound 43], the pIC50 was 8.43 under setting [1] and 5.90 under setting [2].
The matching figures for `CCC12CC(O)c3c(C(=O)NCc4cccc(Cl)c4F)c(=O)c(O)c(n31)C(=O)N(C)C2` (single isomer, unassigned) [Compound 44]: 8.43 and 6.59.
